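Cells were grown in 96-well plates and exposed to each compound for 48 hours at five concentrations; endpoints were interpolated linearly between bracketing concentrations, or set to the highest concentration if not reached. GI50 marks 50% less growth.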 Calls of active or inactive are those of the source. No stated cut-off is given here; in the data, active = GI50 up to about 1.1 µM and inactive = higher. Bounds are passed on as bounds.

Holding throughout (assay): NCI tumour cell line growth inhibition, 48 h
Experiment [1] has as its system ACHN.
In experiment [2] the test system is BT-549.
For experiment [3], the system named is CCRF-CEM.
Experiment [4] concerns DU-145.
Experiment [5] relates to HCT-15.
Experiment [6] has as its system HOP-62.
Experiment [7] has as its system HOP-92.
Experiment [8] has as its system IGROV-1.
In experiment [9] the test system is MDA-MB-231.
Experiment [10] deals with MDA-MB-435.
Experiment [11] has as its system Malme-3M.
Experiment [12] concerns NCI-H23.
For experiment [13], the system named is NCI-H460.
Experiment [14] relates to NCI/ADR-RES.
The test system of experiment [15] is SF-268.
The test system of experiment [16] is SK-MEL-28.
Experiment [17] has as its system SK-MEL-5.
Experiment [18] has as its system SN12C.
Experiment [19] relates to SNB-75.
For experiment [20], the system named is T47D.

Regarding `C[C@H]1CCC/C=C/[C@@H]2C[C@H](OC3OC(CO)C(O)C(O)C3O)C[C@H]2[C@H](O)/C=C/C(=O)O1` (some centres undefined), the GI50 in experiment [1] was > 100 µM (inactive); in experiment [2] it was > 100 µM (inactive); in experiment [3], > 100 µM (inactive); in [4] it was > 100 µM (inactive); in experiment [5], 72.3 µM; in experiment [6], > 100 µM (inactive). Also, the GI50 is > 100 µM (inactive) in [7]; > 100 µM (inactive) in experiment [8]; 20.4 µM (inactive) in experiment [9]; 50.6 µM (inactive) in [10]; 17.8 µM (inactive) in experiment [11]; 53.1 µM (inactive) in experiment [12]. The GI50 in [13] is 78.9 µM (inactive); in experiment [14] it was 33.3 µM (inactive); in experiment [15], 72.8 µM (inactive); in experiment [16], 25.1 µM (inactive); in experiment [17], 17.2 µM (inactive); in [18], > 100 µM (inactive). Moreover, the GI50 in experiment [19] is 35 µM (inactive); in experiment [20] it was > 100 µM (inactive).
For the compound `O=c1ccn(CC2(CO)CCC2)c(=O)[nH]1`, the GI50 in experiment [1] was > 100 µM (inactive); in [2], > 100 µM (inactive); in experiment [3], > 100 µM (inactive); in experiment [4] it was > 100 µM (inactive); in experiment [5], over 100 µM; in experiment [6], > 100 µM (inactive). Besides, the GI50 in [7], in experiment [8], in experiment [9], in [10], in [11] and in experiment [12] was > 100 µM (inactive) each time. Besides, the GI50 in [13], in experiment [14], in experiment [15], in experiment [16], in experiment [17] and in experiment [18] was > 100 µM (inactive) throughout. In addition, the GI50 in experiment [19] and in experiment [20] was > 100 µM (inactive) each time.
`Cc1ccc(-c2cc(-c3ccc(Cl)cc3)nc(/N=C3\C(=O)N(CN4CCOCC4)c4ccc(Cl)cc43)n2)cc1`: the GI50 in experiment [1] is 19.9 µM (inactive); in [2], 21.8 µM (inactive); in experiment [3], 20.4 µM (inactive); in experiment [4], 20.5 µM (inactive); in experiment [5] it was 23.2 µM; in experiment [6], 20.3 µM (inactive). Moreover, the GI50 in experiment [7] was 17.9 µM (inactive); in [8], 13 µM (inactive); in experiment [9], 30 µM (inactive); in [10] it was 24.4 µM (inactive); in [11], > 100 µM (inactive); in experiment [12] it was 19.6 µM (inactive). Further, the GI50 was 20.9 µM (inactive) in experiment [13]; 22.6 µM (inactive) in experiment [14]; 22.6 µM (inactive) in experiment [15]; 42.4 µM (inactive) in experiment [16]; 18.1 µM (inactive) in experiment [17]; 24.7 µM (inactive) in experiment [18]. Also, the results for the GI50 in [19] and in [20] were 29.9 µM (inactive) and 17.3 µM (inactive), respectively.
Regarding `NC(=O)CN1CCN(c2nc(N3CCCC3)c3nc(Cl)c(NCc4ccccc4)nc3n2)CC1`, the GI50 was 12.4 µM (inactive) in [1]; 10 µM (inactive) in [2]; 13.8 µM (inactive) in experiment [3]; 11.5 µM (inactive) in [4]; 8.67 µM in [5]; 0.525 µM (active) in experiment [6]. For the same compound, the GI50 is 8.36 µM (inactive) in experiment [7]; 12.2 µM (inactive) in [8]; 10.8 µM (inactive) in experiment [9]; 10 µM (inactive) in experiment [10]; 8.65 µM (inactive) in experiment [11]; 13.7 µM (inactive) in [12]. In addition, the GI50 in experiment [13] was 9.12 µM (inactive); in [14], 14 µM (inactive); in experiment [15] it was 8.63 µM (inactive); in experiment [16], 9.46 µM (inactive); in experiment [17], 8.45 µM (inactive); in experiment [18], 9.48 µM (inactive). The GI50 in experiment [19] is 10.7 µM (inactive); in experiment [20], 7.89 µM (inactive).
Consider `C=CC(=O)C#CC#CC/C=C\CCCCCCC`, for which the GI50 in [1] was > 20.6 µM (inactive); in experiment [2] it was > 20.6 µM (inactive); in experiment [3] it was 4.9 µM (inactive); in experiment [4], > 20.6 µM (inactive); in experiment [5] it was over 20.6 µM; in experiment [6], > 10.1 µM (inactive). The GI50 in experiment [7] is > 11.3 µM (inactive); in experiment [8], > 6.52 µM (inactive); in experiment [9], > 20.6 µM (inactive); in [10] it was > 20.6 µM (inactive); in experiment [11], > 20.6 µM (inactive); in experiment [12], > 20.6 µM (inactive). Further, the GI50 in experiment [13], in experiment [14], in [15], in [16], in [17] and in experiment [18] was > 20.6 µM (inactive) in each case. In addition, the GI50 in experiment [19] and in experiment [20] was > 20.6 µM (inactive) throughout.
Turning to `CCN(CC)c1ccc(/C=C2/C[N+](C)(C)C/C(=C/c3ccc(N(CC)CC)cc3)C2=O)cc1`, the GI50 in experiment [1] was 32 µM (inactive); in [2], 1.61 µM (inactive); in experiment [3] it was 1.03 µM (active); in experiment [4] it was 6.05 µM (inactive); in [5], over 100 µM; in [6] it was 5.55 µM (inactive). The GI50 is 0.813 µM (active) in [7]; 2.19 µM (inactive) in [8]; 2.58 µM (inactive) in experiment [9]; 1.67 µM (inactive) in experiment [10]; 1.95 µM (inactive) in experiment [11]; 1.69 µM (inactive) in [12]. In addition, the GI50 in experiment [13] is 2.92 µM (inactive); in experiment [14], > 100 µM (inactive); in [15] it was 2.58 µM (inactive); in experiment [16], 1.82 µM (inactive); in [17] it was 1.67 µM (inactive); in [18], 3.17 µM (inactive). Also, the GI50 in [19] was 1.62 µM (inactive); in experiment [20], 2.4 µM (inactive).
For `CCC1CCC2C3CC=C4CC(OC(C)=O)C(N)CC4(C)C3CCC12C` (centres undefined), the GI50 in experiment [1] is 7.89 µM (inactive); in experiment [2], 4.93 µM (inactive); in experiment [3], 2.47 µM (inactive); in [4], 2.92 µM (inactive); in experiment [5], 3.3 µM; in experiment [6] it was 2.08 µM (inactive). Further, the GI50 in [7] was 5.02 µM (inactive); in experiment [8], 6.4 µM (inactive); in experiment [9], 1.95 µM (inactive); in experiment [10], 2.35 µM (inactive); in experiment [11], 3.49 µM (inactive); in experiment [12], 6 µM (inactive). Also, the GI50 in experiment [13] is 1.87 µM (inactive); in experiment [14] it was 5.21 µM (inactive); in experiment [15], 2.71 µM (inactive); in experiment [16], 3.66 µM (inactive); in experiment [17], 1.82 µM (inactive); in experiment [18], 5.3 µM (inactive). Further, the GI50 in experiment [19] was 1.89 µM (inactive); in experiment [20] it was 5.78 µM (inactive).
`O=S1(=O)CS(=O)(=O)OCCO1`: the GI50 in experiment [1] was 15.3 µM (inactive); in [2], 37.8 µM (inactive); in [3], 18.5 µM (inactive); in experiment [4] it was 51.1 µM (inactive); in experiment [5], 48.6 µM; in experiment [6], 12.4 µM (inactive). In addition, the GI50 in [7] was 31.2 µM (inactive); in experiment [8], 33.4 µM (inactive); in [9], 128 µM (inactive); in experiment [10] it was 44.2 µM (inactive); in experiment [11], 55.1 µM (inactive); in experiment [12], 37.8 µM (inactive). Further, the GI50 in [13] was 12.9 µM (inactive); in experiment [14] it was 50.9 µM (inactive); in experiment [15], 15.1 µM (inactive); in experiment [16], 69 µM (inactive); in experiment [17], 40.1 µM (inactive); in experiment [18], 66.1 µM (inactive). The GI50 is 14 µM (inactive) in experiment [19] and 53.1 µM (inactive) in experiment [20].
On to `COc1cc2ccc1OCc1cccc(n1)COc1ccc(cc1OC)/C=N\c1ccc(cc1)/N=C\2`, for which the GI50 in experiment [1] was > 100 µM (inactive); in experiment [2], > 100 µM (inactive); in experiment [3] it was > 100 µM (inactive); in experiment [4] it was > 100 µM (inactive); in experiment [5], over 100 µM; in experiment [6], > 100 µM (inactive). The GI50 in experiment [7], in [8], in experiment [9], in experiment [10], in experiment [11] and in experiment [12] was > 100 µM (inactive) in each case. Moreover, the GI50 in [13], in experiment [14], in [15], in [17], in experiment [18] and in experiment [19] was > 100 µM (inactive) throughout. Besides, the GI50 in experiment [20] is > 100 µM (inactive).
Consider `O=Cc1ccc(-c2cccs2)s1`, for which the GI50 was > 100 µM (inactive) in [1]; 51.3 µM (inactive) in experiment [2]; 81.8 µM (inactive) in experiment [3]; > 100 µM (inactive) in [4]; over 100 µM in experiment [5]; 67.6 µM (inactive) in [6]. Moreover, the GI50 was 55.6 µM (inactive) in experiment [7]; 12.6 µM (inactive) in [8]; > 80 µM (inactive) in experiment [9]; 66.2 µM (inactive) in experiment [10]; > 100 µM (inactive) in [11]; > 68.1 µM (inactive) in [12]. Moreover, the GI50 is 33.5 µM (inactive) in experiment [13]; 42.2 µM (inactive) in [14]; > 96.8 µM (inactive) in experiment [15]; > 100 µM (inactive) in experiment [16]; 58.1 µM (inactive) in experiment [17]; > 100 µM (inactive) in experiment [18]. Besides, the GI50 was 76 µM (inactive) in experiment [19] and 46.9 µM (inactive) in experiment [20].
